Assay results published in patent publication US10265307B2, “Thiazolecarboxamides and pyridinecarboxamide compounds useful as Pim kinase inhibitors” (Incyte Corporation, priority 2013, dated 2019).

What was measured:
Format in all cases: biochemical
Pim-2 = Pim-2 (Homo sapiens (Human), UniProt Q9P1W9); experiment: Pim-2 kinase assay; conditions: 1 mM ATP; read-out: Pim2 IC50
Protocol: Pim-2 kinase assay-20 μL reactions were run in white 384 well polystyrene plates dotted with 0.8 μL compound/DMSO in the assay buffer (50 mM Tris, pH 7.5, 0.01% Tween-20, 5 mM MgCl2, 0.01% BSA, 5 mM DTT), containing 0.05 μM Fluorescein-labeled CREBtide peptide substrate (Invitrogen PV3508), 1 mM ATP, and 1 nM enzyme (Invitrogen PV3649) for 2 h at 25° C. Reactions were stopped by addition of 10 μL TR-FRET Dilution Buffer (Invitrogen PV3574) with 30 mM EDTA and 1.5 nM LanthaScreen Tb-CREB pSer133 antibody (Invitrogen PV3566). After 30 min. incubation at room temperature, plates were read on a PHERAstar FS plate reader (BMG Labtech).
Although the above in vitro assays are conducted at 1 mM ATP compounds can also be evaluated for potency and in vitro activity against PIM targets utilizing Km conditions, where the concentration of ATP is set to the Km value and the assay is more sensitive to PIM inhibition activity.

Pim-1 = Pim-1 (Homo sapiens (Human), UniProt P11309); experiment: Pim-1 kinase assay; conditions: 1 mM ATP; read-out: Pim1 IC50
Protocol: Supplementation of the STOP buffer with beads and stopping the reactions were done under reduced light. Prior to the stopping reactions STOP buffer with beads was pre-incubated for 1 h in the dark at room temperature. After stopping the reactions, plates were incubated for 1 h in the dark at room temperature before reading on a PHERAstar FS plate reader (BMG Labtech) under reduced light.

Pim-3 = Pim-3 (Homo sapiens (Human), UniProt Q86V86); experiment: Pim-3 kinase assay; conditions: 1 mM ATP; read-out: Pim3 IC50
Protocol: Pim-1 and Pim-3 kinase assays-20 μL reactions were run in white 384 well polystyrene plates dotted with 0.8 μL compound/DMSO in the assay buffer (50 mM Tris, pH 7.5, 0.01% Tween-20, 5 mM MgCl2, 0.01% BSA, 5 mM DTT), containing 0.05 μM Biotin-labeled BAD peptide substrate (AnaSpec 62269), 1 mM ATP, and […] (Pim-1, Invitrogen PV3503) or […] (Pim-3, Millipore 14-738) enzyme for 1 h at 25° C. Reactions were stopped by addition of 10 μL STOP Buffer (150 mM Tris, pH=7.5, 150 mM NaCl, 75 mM EDTA, 0.01% Tween-20, 0.3% BSA) supplemented with Phospho-Bad (Ser112) Antibody (Cell Signaling 9291) diluted 666-fold, and Streptavidin donor beads (PerkinElmer 6760002) along with Protein-A acceptor beads (PerkinElmer 6760137) at 15 μg/mL each. Supplementation of the STOP buffer with beads and stopping the reactions were done under reduced light. Prior to the stopping reactions STOP buffer with beads was pre-incubated for 1 h in the dark at room temperature. After stopping the reactions, plates were incubated for 1 h in the dark at room temperature before reading on a PHERAstar FS plate reader (BMG Labtech) under reduced light.

Chain of Pim-1 (P11309 whole entry): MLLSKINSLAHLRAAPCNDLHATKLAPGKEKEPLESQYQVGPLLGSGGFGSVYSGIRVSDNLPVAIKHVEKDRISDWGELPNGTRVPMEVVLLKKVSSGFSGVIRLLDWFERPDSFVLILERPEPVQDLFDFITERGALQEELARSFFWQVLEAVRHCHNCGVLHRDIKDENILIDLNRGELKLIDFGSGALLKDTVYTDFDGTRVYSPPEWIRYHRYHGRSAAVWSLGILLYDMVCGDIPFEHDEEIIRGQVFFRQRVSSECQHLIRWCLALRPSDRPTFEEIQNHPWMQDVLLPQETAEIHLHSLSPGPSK
Chain of Pim-2 (Q9P1W9 whole entry): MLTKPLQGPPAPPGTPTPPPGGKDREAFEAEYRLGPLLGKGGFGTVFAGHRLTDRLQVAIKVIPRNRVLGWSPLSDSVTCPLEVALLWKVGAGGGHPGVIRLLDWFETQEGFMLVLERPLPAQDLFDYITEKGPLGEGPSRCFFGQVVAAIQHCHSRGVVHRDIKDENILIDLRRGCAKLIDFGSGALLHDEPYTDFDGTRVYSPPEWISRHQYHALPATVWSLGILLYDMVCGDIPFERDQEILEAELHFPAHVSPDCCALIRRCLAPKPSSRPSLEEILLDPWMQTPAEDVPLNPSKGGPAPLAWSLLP

SMILES | IC50 (Pim-2) [nM] | IC50 (Pim-1) [nM] | IC50 (Pim-3) [nM]
N[C@H]1CCCN(c2c(NC(=O)c3csc(-c4c(F)cccc4F)n3)cnc3ccccc23)C1 [Example 2, N-{4-[(3S)-3-Aminopiperidin-1-yl]quinolin-3-yl}-2-(2,6-difluorophenyl)-1,3-thiazole-4-carboxamide] | > 2000 | > 40 | > 40
COCc1cc(F)c(-c2nc(C(=O)Nc3cnc4c(c3N3C[C@@H](N)[C@H](O)[C@@H](C)C3)CCC4O)ccc2F)c(F)c1 (single isomer, unassigned) [66 (Diastereoisomer 1)] | ≤ 100 | ≤ 100 | ≤ 100
C[C@@H]1C[C@H](N)CN(c2c(NC(=O)c3nc(-c4c(F)cccc4F)c(F)cc3N)cnc3c2CCC3O)C1 (single isomer, unassigned) [46 (Diastereoisomer 1)] | ≤ 100 | ≤ 100 | ≤ 100
C[C@H]1CN(c2c(NC(=O)c3nc(-c4c(F)cccc4F)sc3N)cnc3c2CCC3O)C[C@@H](N)[C@@H]1O (single isomer, unassigned) [49 (Diastereoisomer 2)] | ≤ 100 | ≤ 100 | ≤ 100
COc1ccc(F)c(-c2nc(C(=O)Nc3cnc4c(c3N3CCC[C@H](N)C3)CCC4O)ccc2F)c1F (single isomer, unassigned) [55 (Diastereoisomer 1)] | 100 to 1000 | ≤ 100 | ≤ 100
C[C@H]1CN(c2c(NC(=O)c3ccc(F)c(-c4c(F)cccc4F)n3)cnc3c2CCO3)C[C@@H](N)[C@@H]1O [Example 41, N-{4-[(3R,4R,5S)-3-Amino-4-hydroxy-5-methylpiperidin-1-yl]-2,3-dihydrofuro[2,3-b]pyridin-5-yl}-6-(2,6-difluorophenyl)-5-fluoropyridine-2-carboxamide] | ≤ 100 | ≤ 100 | ≤ 100
C[C@H]1CN(c2c(NC(=O)c3ccc(F)c(-c4c(F)cccc4F)n3)cnc3c2CCC3O)C[C@@H](N)C1(C)O (single isomer, unassigned) [63 (Diastereoisomer 2)] | ≤ 100 | ≤ 100 | ≤ 100
N[C@H]1CCCN(c2c(NC(=O)c3csc(-c4c(F)cccc4F)n3)cnc3c2CCO3)C1 [Example 10, N-{4-[(3S)-3-Aminopiperidin-1-yl]-2,3-dihydrofuro[2,3-b]pyridin-5-yl}-2-(2,6-difluorophenyl)-1,3-thiazole-4-carboxamide] | 100 to 1000 | ≤ 100 | ≤ 100
CSc1cc(F)c(-c2nc(C(=O)Nc3cnc4c(c3N3CCC[C@H](N)C3)CCC4O)ccc2F)c(F)c1 (single isomer, unassigned) [58 (Diastereoisomer 2)] | 100 to 1000 | ≤ 100 | ≤ 100
C[C@@H]1C[C@H](N)CN(c2c(NC(=O)c3ccc(F)c(-c4c(F)cccc4F)n3)cnc3c2CCC3O)C1 (single isomer, unassigned) [45 (Diastereoisomer 2)] | ≤ 100 | ≤ 100 | ≤ 100
COCc1cc(F)c(-c2nc(C(=O)Nc3cnc4c(c3N3C[C@@H](N)[C@H](O)[C@@H](C)C3)CCC4O)ccc2F)c(F)c1 (single isomer, unassigned) [66 (Diastereoisomer 2)] | ≤ 100 | ≤ 100 | ≤ 100
C[C@@H]1C[C@H](N)CN(c2c(NC(=O)c3ccc(F)c(-c4c(F)cc([S+](C)[O-])cc4F)n3)cnc3c2CCC3O)C1 (single isomer, unassigned) [60 (Diastereoisomer 1)] | 100 to 1000 | ≤ 100 | ≤ 100
CC1(N)CCCN(c2c(NC(=O)c3nc(-c4c(F)cccc4F)sc3N)cnc3c2CCC3)C1 (stereo not drawn) [Example 57, 5-Amino-N-[4-(3-amino-3-methylpiperidin-1-yl)-6,7-dihydro-5H-cyclopenta[b]pyridin-3-yl]-2-(2,6-difluorophenyl)-1,3-thiazole-4-carboxamide] | 100 to 1000 | ≤ 100 | ≤ 100
COC1CCc2c1ncc(NC(=O)c1nc(-c3c(F)cccc3F)sc1N)c2N1CCC[C@H](N)C1 (stereo partly drawn) [Example 17, 5-Amino-N-{4-[(3S)-3-aminopiperidin-1-yl]-7-methoxy-6,7-dihydro-5H-cyclopenta[b]pyridin-3-yl}-2-(2,6-difluorophenyl)-1,3-thiazole-4-carboxamide] | 100 to 1000 | ≤ 100 | ≤ 100
C[C@H]1CN(c2c(NC(=O)c3ccc(F)c(-c4c(F)cc(OC5CCCOC5)cc4F)n3)cnc3c2CCO3)C[C@@H](N)[C@@H]1O (stereo partly drawn) [Example 69, N-{4-[(3R,4R,5S)-3-amino-4-hydroxy-5-methylpiperidin-1-yl]-2,3-dihydrofuro[2,3-b]pyridin-5-yl}-6-[2,6-difluoro-4-(tetrahydro-2H-pyran-3-yloxy)phenyl]-5-fluoropyridine-2-carboxamide] | ≤ 100 | ≤ 100 | ≤ 100
C[C@H]1CN(c2c(NC(=O)c3nc(-c4c(F)cccc4F)sc3N)cnc3c2CCO3)C[C@@H](N)[C@]1(C)O [Example 76, 5-Amino-N-{4-[(3R,4R,5S)-3-amino-4-hydroxy-4,5-dimethylpiperidin-1-yl]-2,3-dihydrofuro[2,3-b]pyridin-5-yl}-2-(2,6-difluorophenyl)-1,3-thiazole-4-carboxamide] | ≤ 100 | ≤ 100 | ≤ 100
N[C@@H]1CN(c2c(NC(=O)c3ccc(F)c(-c4c(F)cccc4F)n3)cnc3c2CCC3O)C[C@H](C2CC2)[C@H]1O (single isomer, unassigned) [68 (Diastereoisomer 2)] | ≤ 100 | ≤ 100 | ≤ 100
Nc1cc(F)c(-c2c(F)cccc2F)nc1C(=O)Nc1cnc2c(c1N1CCC[C@H](N)C1)CCC2O (single isomer, unassigned) [23 (Diastereoisomer 2)] | ≤ 100 | ≤ 100 | ≤ 100
C[C@H]1CN(c2c(NC(=O)c3nc(-c4c(F)cccc4F)c(F)cc3N)cnc3c2CCC3O)C[C@@H](N)[C@@H]1O (single isomer, unassigned) [48 (Diastereoisomer 1)] | 100 to 1000 | ≤ 100 | ≤ 100
Nc1sc(-c2c(F)cccc2F)nc1C(=O)Nc1cnc2c(c1N1CCC[C@H](N)C1)CCO2 [Example 9, 5-Amino-N-{4-[(3S)-3-aminopiperidin-1-yl]-2,3-dihydrofuro[2,3-b]pyridin-5-yl}-2-(2,6-difluorophenyl)-1,3-thiazole-4-carboxamide] | ≤ 100 | ≤ 100 | ≤ 100
C[C@@H]1C[C@H](N)CN(c2c(NC(=O)c3ccc(F)c(-c4c(F)cccc4F)n3)cnc3c2CCC3O)C1 (single isomer, unassigned) [45 (Diastereoisomer 1)] | ≤ 100 | ≤ 100 | ≤ 100
C[C@@H]1C[C@H](N)CN(c2c(NC(=O)c3ccc(F)c(-c4c(F)cc([S+](C)[O-])cc4F)n3)cnc3c2CCC3O)C1 (single isomer, unassigned) [60 (Diastereoisomer 2)] | 100 to 1000 | ≤ 100 | ≤ 100
Nc1sc(-c2c(F)cccc2F)nc1C(=O)Nc1cnc2sccc2c1N1CCC[C@H](N)C1 [Example 3, 5-Amino-N-{4-[(3S)-3-aminopiperidin-1-yl]thieno[2,3-b]pyridin-5-yl}-2-(2,6-difluorophenyl)-1,3-thiazole-4-carboxamide] | ≤ 100 | ≤ 100 | ≤ 100
C[S+]([O-])c1cc(F)c(-c2nc(C(=O)Nc3cnc4c(c3N3CCC[C@H](N)C3)CCC4O)ccc2F)c(F)c1 (single isomer, unassigned) [59 (Diastereoisomer 1)] | 100 to 1000 | ≤ 100 | ≤ 100
CCOc1cc(F)c(-c2nc(C(=O)Nc3cnc4c(c3N3C[C@@H](N)[C@H](O)[C@@H](C)C3)CCC4O)ccc2F)c(F)c1 (single isomer, unassigned) [51 (Diastereoisomer 1)] | ≤ 100 | ≤ 100 | ≤ 100
C[C@@H]1C[C@H](N)CN(c2c(NC(=O)c3ccc(F)c(-c4c(F)cc(C(C)(C)O)cc4F)n3)cnc3c2CCC3O)C1 (single isomer, unassigned) [67 (Diastereoisomer 2)] | ≤ 100 | ≤ 100 | ≤ 100
